“Also recorded” adds a separate entry of the source.
Legend:
human platelets [1] = assay: Confocal microscopy of platelets incubated with fluorescently labelled peptides; format: cell-based; details: live washed platelets, 10 µM FITC-labelled peptide, 15 minutes incubation, confocal imaging (Fig. SI_5)
Method: Fig. 3 A functionalised staple is required to induce peptide uptake into platelets. (A) Platelets were incubated with TAMRA labelled model peptides (10 μM final concentration) for 1 h (white), 2 h (grey) and 3 h incubation (black) and the percentage positive for TAMRA fluorescence was quantified using flow cytometry. (B) Peptides showing high uptake within the first hour were analysed during first 5 min following treatment. Changes in platelet-associated fluorescence were recorded in real time using flow cytometry. Unlabelled platelets were recorded for 30 s prior to addition of the given peptide. (C) Platelets were incubated with 10 μM of TAMRA-model peptides for 1 h prior to imaging by confocal microscopy. ^‡ […]
Peptide uptake experiments of the most permeable model peptides 5, 13–16 were repeated in the presence of platelet-rich plasma (PRP) to ensure realistic conditions (ESI, Fig. SI_2a ^†).
Figure SI_3. […]
Peptides were used to a final concentration of 10 µM. […] Images of TAMRA-labelled model peptide stained platelets were acquired after 1 h incubation1 using with excitation at 565 nm and emission was detected with a 560 -615 nm BP filter. […]
were acquired after 15 minutes incubation1 using excitation at 488 nm and emission was detected with […]

human platelets [2] = assay: PS exposure (annexin-V binding) by flow cytometry; format: cell-based; details: washed human platelets, 10 μM, 37 °C, time course up to 3 h, flow cytometry (Fig. 5A)
Method: Platelet activation markers (% positive platelets) were investigated following 1 h of peptide treatment. […] CD63 binding.
1.1 Preparation of washed platelet suspension
Human blood was collected from healthy volunteers, who had not taken medication for two weeks,
following informed consent in accordance with the Declaration of Helsinki. Blood was collected into 11 mM sodium citrate and washed platelets were prepared as follows: Platelet-rich plasma (PRP) was obtained by centrifugation (240 g, 15 min). Prostaglandin E1 (PGE1, 2 µM) was added to prevent premature platelet activation, and the plasma was centrifuged at 640 g for 15 min. […]
Treated washed platelet suspensions (1x10^7/mL) were analysed by flow cytometry using a C6 Accuri Flow Cytometer (Beckton Dickinson, UK), in the presence or absence of Annexin-V-PE (BD Biosciences, UK), anti-PAC-1 (BD Biosciences), anti-CD62 (BD Pharmingen, UK), or anti-CD-63P (BD Pharmingen). […]
PS exposure was assessed after incubation of 50 µL of washed platelet suspensions at 37 °C in 445 µL of […]
under the protection from direct light and analysed by flow cytometry.
Platelet activation markers (PAC -1, CD62P and CD63 binding) were assessed after incubation of 3 µL of […]
antibody and the peptide (1.1 μL of 1 mM stock solution in DMSO) . The suspensions were analysed by […]

human platelets [3] = details: PRP, 10 μM FITC-labelled peptide, 15, 30, 60 minutes, flow cytometry, average of two independent repeats (Fig. SI_2b)
Text: (1 picture or pasted object on this page, not shown here)

CC[C@H](C)[C@H](NC(C)=O)C(=O)N[C@@H](Cc1c[nH]c2ccccc12)C(=O)N[C@H](C(=O)N[C@@H](C)C(=O)N[C@@H](CCC(N)=O)C(=O)N[C@@H](CCC(=O)O)C(=O)N[C@@H](CC(C)C)C(=O)N[C@@H](CCCNC(=N)N)C(=O)N[C@H]1CCCn2cc(nn2)CCCc2cn(nn2)CCC[C@@H](C(=O)N[C@@H](Cc2ccccc2)C(=O)N[C@@H](CC(N)=O)C(=O)N[C@@H](C)C(=O)N[C@@H](Cc2ccc(O)cc2)C(=O)N[C@@H](Cc2ccc(O)cc2)C(=O)N[C@@H](C)C(=O)N[C@@H](CCCNC(=N)N)C(=O)N[C@@H](CCCNC(=N)N)C(N)=O)NC(=O)[C@H](CC(=O)O)NC(=O)CNC(=O)[C@H]([C@@H](C)CC)NC1=O)[C@@H](C)CC [peptide 18]
localisation / platelet permeability of FITC-labelled Bim BH3 peptide (human platelets [1]): poor membrane permeability; also recorded: forming aggregates outside the platelet cytosol; also recorded: form fluorescent aggregates outside the platelets | PS exposure / annexin-V binding (in words) (human platelets [2]): No annexin-V binding was observed | platelet fluorescence of FITC-labelled Bim BH3 peptide in plasma (human platelets [3]): high platelet fluorescence in plasma

— paper PMC5969508, “Stapled peptides as a new technology to investigate protein–protein interactions in human platelets” (Chemical Science, 2018)
